Assay results taken from patent US20200323986A1, “HYDROPHOBIC ARENESULFONATE SALTS” (Theracaine LLC, priority 2017, published 2020).

Columns and labels:
[1] = Clinical (cage side) observations and body weight after a single subcutaneous dose; conditions: rat; for tolerability as administered (summary): particles in PEG200, 114/134/161/193 mg/kg-bw (Groups 1-4)
Experimental: (§1) The test articles are drug compositions consisting of B-4BrBSA-650, B-35BrBSA-650, L-4BrBSA-650, and L-35BrBSA-650 particles in a polyethylene glycol 200 vehicle (PEG200; Sigma-Aldrich, polyethylene glycol 200 Bioultra). The test articles were prepared by adding a volume of […] to an appropriate weighed amount of test article in a vial, gently mixed, and then applied uniformly via a single subcutaneous dose via incision on the dorsum of female Sprague Dawley rats.
(§2) Doses were administered via an incision on the dorsal region, as a subcutaneous liquid application (suspension of powder). Each test article was administered at an amount determined by each animal's weight using the calculated mg per kg-bw (bodyweight) as shown in the table below.
(§3) The vehicle was provided as a liquid in an individual container. […] A volume of 100 μL of vehicle was added to each individual dose, allowed to soak, and shaken occasionally to uniformly mix the particles with the PEG200.
(§4) For all groups, the test article suspension was applied to the subcutaneum using a plastic spatula. The test article was distributed as evenly as possible. Incisions were closed with staples, and the animals allowed to recover. All animals received analgesia and antibiotic treatment.
(§5) Cage side observations were performed daily.

[2] = Pharmacokinetics of caine anesthetic salt particles after a single subcutaneous dose (plasma drug concentration versus time); conditions: rat; for initial spike in bupivacaine plasma concentration: single subcutaneous dose, 650 μm particles in PEG200, Groups 1 and 2; for delivery of lidocaine over time (plasma lidocaine concentration versus time) / initial spike in plasma lidocaine concentration: in vivo, sc
Experimental: as §1, §2, §3, §4, §5

[3] = Gross evaluation of dose sites and general gross necropsy at study termination; assay type: in vivo, female Sprague Dawley rats; conditions: rat
Experimental: Sigma-Aldrich, polyethylene glycol 200 Bioultra). […] The test article was distributed as evenly as possible. […] All animals received analgesia and antibiotic treatment. Cage side observations were performed daily.

[4] = animals that lost weight, over the course of the study
[5] = five animals per group, single subcutaneous dose
[6] = group average, single subcutaneous dose
[7] = at study termination (after 96 h sampling)

CCCCN1CCCCC1C(=O)Nc1c(C)cccc1C.Cc1c(Br)cc(S(=O)(=O)O)cc1Br (centres unmarked) [B-35BrBSA-650, Bupivacaine 3,5-dibromo-4-methybenzenesulfonate salt]
weight loss [1, 4]: less than 5 % total body weight
animals that lost weight over the course of the study [1, 5]: two out of five
group mean body weight change at the end of the study [1, 6]: 1 gram
tolerability as administered (summary) ([1]; single subcutaneous dose): well tolerated
duration of delivery of bupivacaine (plasma bupivacaine concentration versus time) ([2]; single subcutaneous dose via dorsal incision, 650 μm particles in 100 μL PEG200, 114 (Group 1) / 134 (Group 2) mg/kg-bw, plasma to 96 h, FIGS. 1-2): greater duration of delivery of bupivacaine compared to test article 1
initial spike in bupivacaine plasma concentration ([2]; FIGS. 1-2): without the initial spike in bupivacaine plasma concentration
encapsulation at dose site ([3]; at study termination): No encapsulation was present
other dose site findings (hematoma, unknown material) ([3]; at study termination): A small hematoma was present in Animal #7
vascularization surrounding the incision sites (dose site observation) ([3]; at study termination): very slight to slight vascularization
residual test article visible at dose site [3, 7]: Small areas of residual test article were visible at or near the incision site in all animals

CCCCN1CCCCC1C(=O)Nc1c(C)cccc1C.O=S(=O)(O)c1ccc(Br)cc1 (centres unmarked) [Example B-4BrBSA-650, Bupivacaine 4-bromobenzenesulfonate salt]
weight loss [1, 4]: less than 5 % total body weight
animals that lost weight over the course of the study [1, 5]: two out of five
group mean body weight change at the end of the study [1, 6]: 4 gram
tolerability as administered (summary) ([1]; single subcutaneous dose): well tolerated
initial spike in bupivacaine plasma concentration ([2]; FIGS. 1-2): initial spike in bupivacaine plasma concentration exhibited by test article 1
encapsulation at dose site ([3]; at study termination): No additional encapsulation or residual test article was visible
other dose site findings (hematoma, unknown material) ([3]; at study termination): Hematomas were present in Animals #2 and #4, with encapsulation of clotted blood in Animal #4
vascularization surrounding the incision sites (dose site observation) ([3]; at study termination): very slight to slight vascularization
residual test article visible at dose site [3, 7]: No additional encapsulation or residual test article was visible

CCN(CC)CC(=O)Nc1c(C)cccc1C.O=S(=O)(O)c1ccc(Br)cc1 [Example L-4BrBSA-650, Lidocaine 4-bromobenzenesulfonate salt]
weight loss ([1]; in vivo): less than 5 % total body weight
animals that lost weight over the course of the study ([1]; in vivo, sc): four out of five
group mean body weight change at the end of the study ([1]; in vivo, sc): −1 gram
survival ([1]; single subcutaneous dose, to scheduled euthanasia (96 h study)): all animals survived until scheduled euthanasia
delivery of lidocaine over time (plasma lidocaine concentration versus time) [2]: at least 24 hours
initial spike in plasma lidocaine concentration [2]: initial spike in plasma lidocaine concentration exhibited by test article 3
encapsulation size at dose site ([3]; in vivo): 0.5-3 cm
other dose site findings (hematoma, unknown material) ([3]; in vivo): Areas of an unknown brown material were present in Animal #13
residual test article visible at dose site ([3]; in vivo): No residual test article was visible
vascularization surrounding the incision sites (dose site observation) ([3]; in vivo): moderate to severe vascularization

CCN(CC)CC(=O)Nc1c(C)cccc1C.Cc1c(Br)cc(S(=O)(=O)O)cc1Br [L-35BrBSA-650, Lidocaine 3,5-dibromo-4-methybenzenesulfonate salt]
weight loss ([1]; in vivo): less than 5 % total body weight
animals that lost weight over the course of the study ([1]; in vivo, sc): two out of five
group mean body weight change at the end of the study ([1]; in vivo, sc): 1 gram
tolerability as administered (summary) ([1]; single subcutaneous dose): well tolerated
delivery of lidocaine over time (plasma lidocaine concentration versus time) [2]: at least 24 hours
initial spike in plasma lidocaine concentration [2]: avoids the initial spike in plasma lidocaine concentration
encapsulation at dose site ([3]; in vivo): No residual test article or encapsulation was visible
residual test article visible at dose site ([3]; in vivo): No residual test article or encapsulation was visible
vascularization surrounding the incision sites (dose site observation) ([3]; in vivo): very slight to moderate vascularization
